In the supplement of paper PMC5844555:

Tests used:
Experiment in all cases: 3' UTR reporter interaction score (median-centred robust z-score of log2 firefly/Renilla activity); higher = less repression of the 3' UTR reporter
Settings in all cases: HEK293T; 48 h
[1] = system: BRCA2
Method in brief: (§1)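 Firefly and Renilla luciferase activities were read 48 h post-transfection in HEK293T cells (10,000/well, 96-well plates). The cells had received 100 ng firefly luc2P reporter bearing the gene's 3' UTR, 20 ng Renilla pRL-TK control and 2.5 pmol miRNA mimic via DharmaFECT Duo. The interaction score, where more negative means interaction, is a per-plate robust z-score (median, median absolute deviation) of the log firefly/Renilla ratio, median-centred per miRNA and averaged over at least two independent screens.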

[2] = system: EZH2
Method in brief: as §1

[3] = system: FBXW7
Method in brief: as §1

[4] = system: HRAS
Method in brief: as §1

[5] = system: MYB
Method in brief: as §1

[6] = system: MYCN
Method in brief: as §1

[7] = system: MYC
Method in brief: as §1

[8] = system: MYT1L
Method in brief: as §1

[9] = system: NOTCH1
Method in brief: as §1

[10] = system: PHF6
Method in brief: as §1

[11] = system: PHOX2B
Method in brief: as §1

[12] = system: RB1
Method in brief: as §1

[13] = system: TP53
Method in brief: as §1

[14] = system: ZEB2
Method in brief: as §1

| Sequence | 3' UTR reporter interaction score [1] | 3' UTR reporter interaction score [2] | 3' UTR reporter interaction score [3] | 3' UTR reporter interaction score [4] | 3' UTR reporter interaction score [5] | 3' UTR reporter interaction score [6] | 3' UTR reporter interaction score [7] | 3' UTR reporter interaction score [8] | 3' UTR reporter interaction score [9] | 3' UTR reporter interaction score [10] | 3' UTR reporter interaction score [11] | 3' UTR reporter interaction score [12] | 3' UTR reporter interaction score [13] | 3' UTR reporter interaction score [14] |
| --- | --- | --- | --- | --- | --- | --- | --- | --- | --- | --- | --- | --- | --- | --- |
| UGACAACUAUGGAUGAGCUCU | -0.499 | 0.197 | 0.175 | -0.056 | 0.977 | 0.478 | 0.174 | 0.836 | -0.339 | -0.469 | -0.766 | -2.61 | 0.025 | 0.125 |
| UGAGAACUGAAUUCCAUAGGCU | -1.45 | 0.351 | -1.39 | -0.193 | 0.897 | 0.165 | 0.179 | 0.753 | -0.287 | 0.668 | -0.835 | -0.182 | -0.401 | 0.486 |
| UGAGAACUGAAUUCCAUGGGUU | -1.66 | 0.673 | -0.989 | -0.164 | 1.11 | 0.702 | -0.0139 | 0.806 | -0.245 | 1.46 | -1.1 | -0.62 | -0.136 | 1.41 |
| UGAGACCUCUGGGUUCUGAGCU | -3.69 | 1.01 | 0.371 | -0.0086 | -1.3 | 0.725 | 0.551 | 0.762 | 0.17 | -0.429 | -0.781 | 0.176 | -1.24 | 1.27 |
| UGAGAUGAAGCACUGUAGCUCA | 1.09 | -0.134 | 0.851 | 0.321 | 0.448 | 0.577 | 0.59 | -0.193 | 0.298 | -0.896 | -0.89 | -0.192 | -0.632 | 0.313 |
| UGAGCUAAAUGUGUGCUGGGA | -0.453 | 0.105 | -0.406 | -0.575 | 0.373 | 0.0799 | -0.176 | 1.13 | -0.446 | -0.0551 | 0.175 | -0.0745 | 0.237 | 0.263 |
| UGAGCUGCUGUACCAAAAU | -0.363 | -0.391 | 0.267 | -0.0544 | -0.26 | -1.43 | -0.354 | 0.273 | 0.526 | 0.476 | 1.09 | 0.104 | -0.00622 | 0.288 |
| UGAGGUAGUAAGUUGUAUUGUU | 0.117 | -3.5 | 0.412 | 0.519 | 0.37 | -4.78 | -2.7 | 0.292 | 0.263 | -0.107 | -0.47 | 0.186 | -0.165 | 0.389 |
| UGAGGUAGUAGAUUGUAUAGUU | 0.246 | -5.6 | 0.329 | 0.942 | 0.461 | -4.33 | -2.66 | 0.00725 | -0.987 | 0.283 | 0.189 | 0.338 | -0.262 | -0.843 |
| UGAGGUAGUAGGUUGUAUAGUU | 0.954 | -3.3 | 0.0535 | 0.245 | 0.376 | -4.02 | -1.94 | -0.405 | -0.241 | 2.23 | -1.51 | -1.04 | 0.766 | -0.683 |
| UGAGGUAGUAGGUUGUGUGGUU | 1.21 | -3.63 | 0.642 | 0.13 | 0.859 | -4.48 | -4.84 | 0.566 | -0.305 | 0.852 | 0.11 | 1.01e-16 | 0.495 | -1.14 |
| UGAGGUAGUAGUUUGUACAGU | 0.445 | -4.15 | -0.143 | 1.06 | 0.441 | -3.87 | -2.59 | 0.517 | 0.637 | -0.221 | 0.114 | 0.426 | 0.627 | -1.5 |
| UGAGGUAGUAGUUUGUGCUGU | 0.294 | -4.28 | 0.144 | 1.26 | 1.1 | -3.97 | -3 | 0.99 | -0.444 | 0.213 | -1.23 | 0.903 | 0.534 | 0.496 |
| UGAGUUGGCCAUCUGAGUGAG | -0.135 | 0.24 | -0.251 | -0.0567 | 0.927 | -3.35 | -0.317 | 2.61 | 1.03 | 2.42 | -3.59 | 0.000132 | -0.988 | 0.14 |
| UGAUAUGUUUGAUAUAUUAGGU | -2.64 | -0.107 | 0.769 | -0.158 | -0.701 | 0.278 | 0.0447 | 0.136 | 0.183 | -0.754 | 0.239 | -0.392 | 0.331 | -0.629 |
| UGAUUGGUACGUCUGUGGGUAGA | -0.144 | -0.0408 | -0.747 | 0.535 | 1.17 | 0.569 | -2.85 | 0.161 | -4.51 | -0.0836 | -0.434 | 0.153 | 0.443 | -0.485 |
| UGAUUGUCCAAACGCAAUUCU | 0.855 | -0.465 | -0.0252 | 0.277 | 0.183 | 0.178 | -2.91 | -0.829 | 0.81 | 1.16 | 0.249 | 0.331 | -0.447 | 0.494 |
| UGCACCAUGGUUGUCUGAGCAUG | 0.899 | 0.00438 | -1.84 | -0.315 | 0.379 | -5.44 | -0.0708 | 0.0254 | -0.682 | 0.727 | -1.01 | 0.168 | 0.617 | -1.45 |
| UGCCUGGGUCUCUGGCCUGCGCGU | -0.375 | -0.794 | -2.61 | -1.95 | 0.325 | -0.0821 | 0.101 | -0.227 | 0.3 | 0.782 | -0.846 | -2.47 | 0.35 | 0.387 |
